Source: patent US11766427B2, “Repurposing compounds for the treatment of infections and for modulating the composition of the gut microbiome” (EUROPEAN MOLECULAR BIOLOGY LABORATORY, priority 2018, dated 2023)
Counter-ions that a name gives are not always drawn.

Legend:
[1] = test system: 40 different bacterial species; test: Prestwick Chemical Library growth screen, whole panel (hits, anticommensal activity); type: cell-based, human gut isolates; settings: for anticommensal activity in the screen (in words): 20 μM, 40 strains, FDR<0.01
[2] = test system: Clostridium perfringens (NT5032); type: cell-based; settings: screen at 20 μM
[3] = test system: Clostridium difficile (NT5083); test: Prestwick Chemical Library growth screen (OD578 growth curves, AUC); type: cell-based; settings: screen at 20 μM
[4] = test system: Bacteroides fragilis (ET) (NT5033); type: cell-based, Bacteroides fragilis enterotoxigenic; settings: screen at 20 μM
[5] = test system: Bacteroides ovatus (NT5054); test: Prestwick Chemical Library growth screen (OD578 growth curves, AUC); type: cell-based; settings: FIG. 8b, three biological replicates, 20 μM
[6] = number of species inhibited of 40 different bacterial species tested
[7] = number of the 40 bacterial species tested whose growth is inhibited, Table 7 broad-spectrum compounds
[8] = number of the 40 strains inhibited at 20 μM (FDR<0.01)

For `C[C@H]1O[C@H](O[C@H]2[C@H](O)[C@@H](O)[C@@H](O[C@H]3[C@H](O)[C@@H](O)C(O)O[C@@H]3CO)O[C@@H]2CO)[C@H](O)[C@@H](O)[C@@H]1N[C@H]1C=C(CO)[C@@H](O)[C@H](O)[C@H]1O` (stereo partly drawn) [Acarbose], the n_hit [1, 6] was 6.

In the case of `C=C1/C(=C\C=C2/CCC[C@]3(C)[C@@H]([C@H](C)CCCC(C)C)CC[C@@H]23)C[C@@H](O)C[C@@H]1O` [Alfacalcidol], the “selective inhibition of the growth of C. perfringens bacteria (in words)” value [2] was “selectively inhibiting the growth” and the n_hit [1, 6] was 7.

In the case of `CCCCc1oc2ccccc2c1C(=O)c1cc(I)c(OCCN(CC)CC)c(I)c1` [Amiodarone hydrochloride], the n_hit [1, 7] was 10.

In the case of `CCOC(=O)C1=C(COCCN)NC(C)=C(C(=O)OC)C1c1ccccc1Cl` (stereo not drawn) [Amlodipine], the n_hit [1, 8] was 2.

`O=C1c2c(O)cccc2Cc2cccc(O)c21` [Anthralin] gave a n_hit [1, 7] of 11.

`C[C@@H](O[C@H]1OCCN(Cc2n[nH]c(=O)[nH]2)[C@H]1c1ccc(F)cc1)c1cc(C(F)(F)F)cc(C(F)(F)F)c1` [Aprepitant] gave a n_hit [1, 7] of 10.

`O=C1CCc2ccc(OCCCCN3CCN(c4cccc(Cl)c4Cl)CC3)cc2N1` [Aripiprazole] showed a n_hit [1, 6] of 3.

With `COc1ccc(CCN2CCC(Nc3nc4ccccc4n3Cc3ccc(F)cc3)CC2)cc1` [Astemizole] the n_hit [1, 7] was 10.

In the case of `Nc1ncn(C2OC(CO)C(O)C2O)c(=O)n1` (stereo not drawn) [Azacytidine-5], the “selective inhibition of the growth of C. perfringens bacteria (in words)” value [2] was “selectively inhibiting the growth” and the n_hit [1, 6] was 1.

In the case of `Cn1cnc([N+](=O)[O-])c1Sc1ncnc2nc[nH]c12` [Azathioprine], the n_hit [1, 8] was 7 and the “inhibition of the growth of C. difficile bacteria (in words)” value [3] was “effective in inhibiting the growth”.

`CC(C)COCC(CN(Cc1ccccc1)c1ccccc1)N1CCCC1` (stereo not drawn) [Bepridil hydrochloride] was tested, and the n_hit [1, 7] was 14.

In the case of `CC1(C)[C@@H](OC(=O)CCC(=O)O)CC[C@]2(C)[C@H]3C(=O)C=C4[C@@H]5C[C@@](C)(C(=O)O)CC[C@]5(C)CC[C@@]4(C)[C@]3(C)CC[C@@H]12` [Carbenoxolone disodium salt], the n_hit [1, 8] was 2 and the “inhibition of the growth of C. difficile bacteria (in words)” value [3] was “effective in inhibiting the growth”.

`CN(C)CCCN1c2ccccc2Sc2ccc(Cl)cc21` [Chlorpromazine hydrochloride] was tested, and the “selective inhibition of the growth of C. perfringens bacteria (in words)” value [2] was “selectively inhibiting the growth” and the n_hit [1, 6] was 6.

For `COCCOC(=O)C1=C(C)NC(C)=C(C(=O)OC/C=C/c2ccccc2)C1c1cccc([N+](=O)[O-])c1` (stereo not drawn) [Cilnidipine], the n_hit [1, 8] was 5, the “selective inhibition of the growth of an enterotoxigenic strain of Bacteroides fragilis (in words)” value [4] was “selectively inhibiting the growth” and the “inhibition of the growth of C. difficile bacteria (in words)” value [3] was “effective in inhibiting the growth”.

`Clc1ccc(Cn2c(CN3CCCC3)nc3ccccc32)cc1` [Clemizole hydrochloride] showed a n_hit [1, 7] of 15.

For `CC(=O)Oc1cccc2c1C(=O)c1c(OC(C)=O)cc(C(=O)O)cc1C2=O` [Diacerein], the n_hit [1, 7] was 33 and the “effect on growth curves (normalized OD/AUC) of Bacteroides ovatus (in words)” value [5] was “almost completely inhibits the growth”.

`O=c1oc2ccccc2c(O)c1Cc1c(O)c2ccccc2oc1=O` [Dicumarol] gave a n_hit [1, 7] of 10.

Work on `CCCCC(=O)O[C@H]1CC[C@H]2[C@@H]3CCc4cc(O)ccc4[C@H]3CC[C@]12C` [Estradiol Valerate] yielded a n_hit [1, 7] of 11.

For `C=C(CC)C(=O)c1ccc(OCC(=O)O)c(Cl)c1Cl` [Ethacrynic acid], the “selective inhibition of the growth of C. perfringens bacteria (in words)” value [2] was “selectively inhibiting the growth”, the n_hit [1, 6] was 6 and the “selective inhibition of the growth of an enterotoxigenic strain of Bacteroides fragilis (in words)” value [4] was “selectively inhibiting the growth”.

In the case of `CCN(CC)C(C)CN1c2ccccc2Sc2ccccc21` (stereo not drawn) [Ethopropazine hydrochloride], the n_hit [1, 7] was 11.

In the case of `CCOC(=O)/C=C(C)/C=C/C=C(C)/C=C/c1c(C)cc(OC)c(C)c1C` [Etretinate], the “selective inhibition of the growth of C. perfringens bacteria (in words)” value [2] was “selectively inhibiting the growth” and the n_hit [1, 6] was 1.

`CC(NCCC(c1ccccc1)c1ccccc1)c1ccccc1` (stereo not drawn) [Fendiline hydrochloride] was tested, and the n_hit [1, 8] was 8 and the “inhibition of the growth of C. difficile bacteria (in words)” value [3] was “effective in inhibiting the growth”.

In the case of `O=C(O)Cc1sc(-c2ccccc2)nc1-c1ccc(Cl)cc1` [Fentiazac], the n_hit [1, 8] was 1 and the “inhibition of the growth of C. difficile bacteria (in words)” value [3] was “effective in inhibiting the growth”.

With `O=C(O)c1ccccc1Nc1cccc(C(F)(F)F)c1` [Flufenamic acid] the n_hit [1, 6] was 4.

`Nc1nc2ncc(CNc3ccc(C(=O)N[C@@H](CCC(=O)O)C(=O)O)cc3)nc2c(=O)[nH]1` [Folic acid] showed a n_hit [1, 6] of 2.

`Nc1ccn([C@@H]2O[C@H](CO)[C@@H](O)C2(F)F)c(=O)n1` [Gemcitabine] was tested, and the “selective inhibition of the growth of C. perfringens bacteria (in words)” value [2] was “selectively inhibiting the growth” and the n_hit [1, 6] was 2.

With `COc1ccc2c(c1)C(=O)N(CCc1ccc(S(=O)(=O)NC(=O)NC3CCCCC3)cc1)C(=O)C2(C)C` [Gliquidone] the n_hit [1, 8] was 1 and the “inhibition of the growth of C. difficile bacteria (in words)” value [3] was “effective in inhibiting the growth”.

`COC1=C(OC)C(=O)C(CCCCCCCCCCO)=C(C)C1=O` [Idebenone] was tested, and the “selective inhibition of the growth of C. perfringens bacteria (in words)” value [2] was “selectively inhibiting the growth” and the n_hit [1, 6] was 3.

`CCOC(=O)C1=C(C)NC(C)=C(C(=O)OCC)C1c1ccccc1/C=C/C(=O)OC(C)(C)C` [Lacidipine] was tested, and the n_hit [1, 8] was 6 and the “inhibition of the growth of C. difficile bacteria (in words)” value [3] was “effective in inhibiting the growth”.

`CCOC(=O)N1CCC(=C2c3ccc(Cl)cc3CCc3cccnc32)CC1` [Loratadine] showed a n_hit [1, 7] of 15.

With `Cc1ccc(Cl)c(Nc2ccccc2C(=O)O)c1Cl` [Meclofenamic acid] the n_hit [1, 6] was 5, the “selective inhibition of the growth of an enterotoxigenic strain of Bacteroides fragilis (in words)” value [4] was “selectively inhibiting the growth” and the “effect on growth curves (normalized OD/AUC) of Bacteroides ovatus (in words)” value [5] was “just below the hit threshold”.

`Cc1cccc(CN2CCN(C(c3ccccc3)c3ccc(Cl)cc3)CC2)c1` (stereo not drawn) [Meclozine dihydrochloride] was tested, and the n_hit [1, 8] was 8 and the “inhibition of the growth of C. difficile bacteria (in words)” value [3] was “effective in inhibiting the growth”.

With `S=c1nc[nH]c2nc[nH]c12` [Mercaptopurine] the n_hit [1, 8] was 4 and the “inhibition of the growth of C. difficile bacteria (in words)” value [3] was “effective in inhibiting the growth”.

`CSc1ccc2c(c1)C(N1CCN(C)CC1)Cc1ccccc1S2.O=C(O)/C=C\C(=O)O` (stereo not drawn) [Methiothepin maleate] showed a n_hit [1, 7] of 10.

In the case of `CN1CCCC(CC2c3ccccc3Sc3ccccc32)C1` (stereo not drawn) [Metixene hydrochloride], the n_hit [1, 6] was 9 and the “selective inhibition of the growth of an enterotoxigenic strain of Bacteroides fragilis (in words)” value [4] was “selectively inhibiting the growth”.

With `CC#C[C@]1(O)CC[C@H]2[C@@H]3CCC4=CC(=O)CCC4=C3[C@@H](c3ccc(N(C)C)cc3)C[C@@]21C` [Mifepristone] the n_hit [1, 8] was 3 and the “inhibition of the growth of C. difficile bacteria (in words)” value [3] was “effective in inhibiting the growth”.

`C[C@@H]1C[C@H]2[C@@H]3CCC4=CC(=O)C=C[C@]4(C)[C@@]3(Cl)[C@@H](O)C[C@]2(C)[C@@]1(OC(=O)c1ccco1)C(=O)CCl` [Mometasone furoate] gave a n_hit [1, 6] of 1.

`CC(C)(O)c1ccccc1CC[C@@H](SCC1(CC(=O)O)CC1)c1cccc(/C=C/c2ccc3ccc(Cl)cc3n2)c1` [Montelukast] showed a n_hit [1, 8] of 8.

In the case of `CC(=O)O[C@H]1C(=O)[C@@]2(C)[C@H]([C@H](OC(=O)c3ccccc3)[C@]3(O)C[C@H](OC(=O)[C@H](O)[C@@H](NC(=O)c4ccccc4)c4ccccc4)C(C)=C1C3(C)C)[C@]1(OC(C)=O)CO[C@@H]1C[C@@H]2O` [Paclitaxel], the “selective inhibition of the growth of C. perfringens bacteria (in words)” value [2] was “selectively inhibiting the growth” and the n_hit [1, 6] was 1.

In the case of `O=C1c2ccccc2C(=O)C1c1ccccc1` [Phenindione], the “selective inhibition of the growth of C. perfringens bacteria (in words)” value [2] was “selectively inhibiting the growth” and the n_hit [1, 6] was 1.

With `CNCCCC1c2ccccc2C=Cc2ccccc21` [Protriptyline hydrochloride] the n_hit [1, 6] was 8 and the “selective inhibition of the growth of an enterotoxigenic strain of Bacteroides fragilis (in words)” value [4] was “selectively inhibiting the growth”.

`CCCc1nc2c(C)cc(-c3nc4ccccc4n3C)cc2n1Cc1ccc(-c2ccccc2C(=O)O)cc1` [Telmisartan] was tested, and the n_hit [1, 8] was 4 and the “inhibition of the growth of C. difficile bacteria (in words)” value [3] was “effective in inhibiting the growth”.

With `N[C@@H](Cc1cc(I)c(Oc2cc(I)c(O)c(I)c2)c(I)c1)C(=O)O` [Thyroxine (L)] the n_hit [1, 6] was 3.

`O=C(O)Cc1cc(I)c(Oc2ccc(O)c(I)c2)c(I)c1` [Tiratricol] was tested, and the n_hit [1, 7] was 14.

With `Cc1cccc(N(C)C(=S)Oc2ccc3ccccc3c2)c1` [Tolnaftate] the n_hit [1, 6] was 5 and the “selective inhibition of the growth of an enterotoxigenic strain of Bacteroides fragilis (in words)” value [4] was “selectively inhibiting the growth”.

With `Cc1cc(-n2c(=O)[nH]c(=O)n(C)c2=O)ccc1Oc1ccc(SC(F)(F)F)cc1` [Toltrazuril] the n_hit [1, 6] was 7 and the “selective inhibition of the growth of an enterotoxigenic strain of Bacteroides fragilis (in words)” value [4] was “selectively inhibiting the growth”.

In the case of `CCOC1O[C@H]([C@@H](COCc2ccccc2)OCc2ccccc2)[C@H](OCc2ccccc2)[C@H]1O` (stereo partly drawn) [Tribenoside], the n_hit [1, 8] was 1 and the “inhibition of the growth of C. difficile bacteria (in words)” value [3] was “effective in inhibiting the growth”.

Work on `Cc1c(C)c2c(c(C)c1O)CCC(C)(COc1ccc(CC3SC(=O)NC3=O)cc1)O2` (stereo not drawn) [Troglitazone] yielded a n_hit [1, 7] of 13.

In the case of `O=C1Nc2ccc(Cl)cc2[C@@](C#CC2CC2)(C(F)(F)F)O1` [efavirenz], the “anticommensal activity in the screen (in words)” value [1] was “anticommensal activity”.

`CCOC(=O)Nc1ccc2c(c1)N(C(=O)CCN1CCOCC1)c1ccccc1S2` [moricizine] was tested, and the “effect on growth curves (normalized OD/AUC) of Bacteroides ovatus (in words)” value [5] was “a hit with partial but strong growth inhibition”.

For `O=c1[nH]c(=O)n([C@H]2C[C@H](O)[C@@H](CO)O2)cc1C(F)(F)F` [trifluridine], the “anticommensal activity in the screen (in words)” value [1] was “anticommensal activity”.
